From patent US20100278858A1, “PROCESS FOR PREPARING […] STRAINS” (priority 2007, published 2010)
≈ marks a conversion by molar mass, not a printed value. Read-outs that look alike come from different tables or passages of the source.

How the values were obtained:
HSV-1 TK^− B2006 = assay: method of reducing viral plates (plaque reduction); type: cell-based; details: for Relative resistance (RR): IC50 of HSV-1 TK^− B2006 / IC50 of HSV-1 (F)
Experimental: (§1) According to the present invention, a method of reducing the viral plates comprises the following process: Vero cells monolayers developed in 24 wells microplates are infected with 50 UFP/well of virus in the absence or presence of different compounds concentrations. Each dilution is tested by duplicate. After 1 hour adsorption at 37° C., the inoculum is removed and covered by plating medium (culture media with methylcellulose at a final concentration of 0.7%). Inoculation is continued till the viral plates' appearance, which are then counted after fitting and dying the cells with violet crystal. Moreover, according to the present invention, 50% inhibitory concentration (IC50) means the compound concentration required for reducing about 50% the number of viral plates.
(§2) Thus, preliminary tests of the cloned variants of passages with greater selection pressure of 1C3 (17, 20 and 21) with pyrimidine and purine analogous as aciclovir (ACV) and brivudin (BVDU) would disclose alterations at viral TK level as it is shown in Table VIII, a characteristic that, up to date, has not been published in previous art documents. The TK gene is not essential for the in vitro viral replication, though in vivo, is involved in the virulence, pathogenicity and reactivation since latency (Andrei G et al., 2005). […] Therefore, the selection pressure to which the viruses were subjected could have selected mutations in the TK gene and in additional superimposing genes generating strains with less in vivo pathogenic action (Jacobson J et al., 1993).

1C3-syn-13-8 = assay: method of reducing viral plates (plaque reduction); type: cell-based, HSV-1
Experimental: as §1
(§3) Compounds were present during the viral adsorption (1h, 37° C.) and after the infection. When a cytopathic action (ACP) between 80-90%, during a period among 24 to 72 hours p.i., was observed, cells were lysed with freeze-thawing cycles. In order to remove cellular moieties, the cellular lisate was centrifuged during 10 min at 1000 rpm, keeping the supernatant at −70° C. The supernatant was used to infect a new monolayer in the presence of SAMMA or PRO2000. […] The title and the IC50 of each viral passage was determined by viral plates reduction test (or after 2-3 passages) against SAMMA or PRO20000.

1C3-syn-14-1 = assay: method of reducing viral plates (plaque reduction); type: cell-based, HSV-1; details: for Relative resistance (RR): IC50 of clone 1C3 syn 14-1 / IC50 of HSV-1 (F); for susceptibility of variant to drug (in words): variant 1C3-syn-14-1
Experimental: as §1, §3

1C3 syn 20-2 = assay: method of reducing viral plates (plaque reduction); type: cell-based, HSV-1; details: for Relative resistance (RR): IC50 of clone 1C3 syn 20-2 / IC50 of HSV-1 (F)
Experimental: as §1, §2

1C3 syn 21-2 = assay: method of reducing viral plates (plaque reduction); type: cell-based, HSV-1; details: for Relative resistance (RR): IC50 of clone 1C3 syn 21-2 / IC50 of HSV-1 (F); for IC50: strain 1C3 syn 21-2
Experimental: as §1, §2

1C3 syn 17-1 = assay: method of reducing viral plates (plaque reduction); type: cell-based, HSV-1; details: for Relative resistance (RR): IC50 of clone 1C3 syn 17-1 / IC50 of HSV-1 (F); for IC50: strain 1C3 syn 17-1
Experimental: as §1, §2

1C3 syn 21-3 = assay: method of reducing viral plates (plaque reduction); type: cell-based, HSV-1; details: for Relative resistance (RR): IC50 of clone 1C3 syn 21-3 / IC50 of HSV-1 (F); for IC50: strain 1C3 syn 21-3
Experimental: as §1, §2

1C3 syn 17-2 = assay: method of reducing viral plates (plaque reduction); type: cell-based, HSV-1; details: for Relative resistance (RR): IC50 of clone 1C3 syn 17-2 / IC50 of HSV-1 (F); for IC50: strain 1C3 syn 17-2
Experimental: as §1, §2

1C3 syn 17-3 = assay: method of reducing viral plates (plaque reduction); type: cell-based, HSV-1; details: for Relative resistance (RR): IC50 of clone 1C3 syn 17-3 / IC50 of HSV-1 (F); for IC50: strain 1C3 syn 17-3
Experimental: as §1, §2

1C3 syn 20-3 = assay: method of reducing viral plates (plaque reduction); type: cell-based, HSV-1; details: for Relative resistance (RR): IC50 of clone 1C3 syn 20-3 / IC50 of HSV-1 (F); for IC50: strain 1C3 syn 20-3
Experimental: as §1, §2

1C3 syn 21-1 = assay: method of reducing viral plates (plaque reduction); type: cell-based, HSV-1; details: for Relative resistance (RR): IC50 of clone 1C3 syn 21-1 / IC50 of HSV-1 (F); for IC50: strain 1C3 syn 21-1
Experimental: as §1, §2

1C3 syn 20-1 = assay: method of reducing viral plates (plaque reduction); type: cell-based, HSV-1; details: for Relative resistance (RR): IC50 of clone 1C3 syn 20-1 / IC50 of HSV-1 (F); for IC50: strain 1C3 syn 20-1
Experimental: as §1, §2

HSV-2 (G) = type: cell-based; details: virus HSV-2 (G)
Experimental: as §1, §3

SAMMA-15-7 = assay: method of reducing viral plates (plaque reduction); type: cell-based, HSV-2
Experimental: as §1, §3
(§4) By the end of a year, the corresponding virus to passages 13 and 16 in the presence of PRO2000 and SAMMA, respectively, were cloned in monolayers of Vero cells developed in 6 wells plates. The cellular monolayers were infected with a limited dilution of virus and were coated with maintenance media (MM) containing agarose 0.6%. After 2 days incubation, cells were dyed with neutral red and clones were stippled. For clone amplification, Vero cells with each selected clone were infected; after 1 hour adsorption at 37° C., the innoculum was discarded and was covered with MM, subjected to incubation 24-48 h at 37° C. till ACP development was observed.

SAMMA-15-3 = assay: method of reducing viral plates (plaque reduction); type: cell-based, HSV-2
Experimental: as §1, §3, §4

Pro2000-syn13-1 = assay: method of reducing viral plates (plaque reduction); type: cell-based, HSV-2
Experimental: as §1, §3, §4

Pro2000-13-5 = assay: method of reducing viral plates (plaque reduction); type: cell-based, HSV-2
Experimental: as §1, §3, §4

Pro2000-syn13-9 = assay: method of reducing viral plates (plaque reduction); type: cell-based, HSV-2
Experimental: as §1, §3, §4

Pro2000-13-10 = assay: method of reducing viral plates (plaque reduction); type: cell-based, HSV-2
Experimental: as §1, §3, §4

HSV-1 (F) = assay: method of reducing viral plates (plaque reduction); type: cell-based
Experimental: as §1, §3

[1] = Human alphaherpesvirus 1, read-out: IC50

Heparine
Relative resistance (RR) (HSV-1 TK^− B2006): 3.0 | IC50 (HSV-1 TK^− B2006; strain HSV-1 TK^− B2006): 3.5 µg/mL | RR (relative resistance) (1C3-syn-13-8; IC50 of variant 1C3-syn-13-8 / IC50 for HSV-1 (F)): 0.9 | IC50 (1C3-syn-13-8; Table IV, virus 1C3-syn-13-8): 1.2 µg/mL | susceptibility of variant to drug (in words) (1C3-syn-13-8; variant 1C3-syn-13-8): sensitive | RR (relative resistance) (1C3-syn-14-1; Table IV, IC50 of variant 1C3-syn-14-1 / IC50 for HSV-1 (F)): 2.9 | IC50 (1C3-syn-14-1; Table IV, virus 1C3-syn-14-1): 4.1 µg/mL | Relative resistance (RR) (1C3-syn-14-1; Table VIII): 5.7 | IC50 (1C3-syn-14-1; Table VIII, strain 1C3 syn 14-1): 7.1 µg/mL | susceptibility of variant to drug (in words) (1C3-syn-14-1): resistant | Relative resistance (RR) (1C3 syn 20-2): > 16.0 | IC50 (1C3 syn 20-2; strain 1C3 syn 20-2): > 20 µg/mL | Relative resistance (RR) (1C3 syn 21-2): 8.0 | IC50 (1C3 syn 21-2): 10.0 µg/mL | Relative resistance (RR) (1C3 syn 17-1): 8.0 | IC50 (1C3 syn 17-1): 10.0 µg/mL | Relative resistance (RR) (1C3 syn 21-3): 5.7 | IC50 (1C3 syn 21-3): 7.1 µg/mL | Relative resistance (RR) (1C3 syn 17-2): > 16.0 | IC50 (1C3 syn 17-2): > 20 µg/mL | Relative resistance (RR) (1C3 syn 17-3): 5.7 | IC50 (1C3 syn 17-3): 7.1 µg/mL | Relative resistance (RR) (1C3 syn 20-3): > 16.0 | IC50 (1C3 syn 20-3): > 20 µg/mL | Relative resistance (RR) (1C3 syn 21-1): 8.0 | IC50 (1C3 syn 21-1): 10.0 µg/mL | Relative resistance (RR) (1C3 syn 20-1): > 16.0 | IC50 (1C3 syn 20-1): > 20 µg/mL | IC50 (HSV-2 (G)): 1.8 µg/mL | RR (relative resistance) (SAMMA-15-7; IC50 of variant SAMMA-15-7 / IC50 for HSV-2 (G)): 6.7 | IC50 (SAMMA-15-7; virus SAMMA-15-7): 12.0 µg/mL | RR (relative resistance) (SAMMA-15-3; IC50 of variant SAMMA-15-3 / IC50 for HSV-2 (G)): 4.6 | susceptibility of variant to drug (in words) (SAMMA-15-3; variant SAMMA-15-3): resistant | IC50 (SAMMA-15-3; virus SAMMA-15-3): 8.4 µg/mL | RR (relative resistance) (Pro2000-syn13-1; IC50 of variant Pro2000-syn13-1 / IC50 for HSV-2 (G)): 4.3 | IC50 (Pro2000-syn13-1; virus Pro2000-syn13-1): 7.8 µg/mL | RR (relative resistance) (Pro2000-13-5; IC50 of variant Pro2000-13-5 / IC50 for HSV-2 (G)): 1.2 | IC50 (Pro2000-13-5; virus Pro2000-13-5): 2.2 µg/mL | RR (relative resistance) (Pro2000-syn13-9; IC50 of variant Pro2000-syn13-9 / IC50 for HSV-2 (G)): 10.8 | susceptibility of variant to drug (in words) (Pro2000-syn13-9; variant Pro2000-syn-13-9): resistant | IC50 (Pro2000-syn13-9; virus Pro2000-syn13-9): 19.5 µg/mL | RR (relative resistance) (Pro2000-13-10; IC50 of variant Pro2000-13-10 / IC50 for HSV-2 (G)): 1.4 | IC50 (Pro2000-13-10; virus Pro2000-13-10): 2.6 µg/mL | IC50 (HSV-1 (F); Table IV, virus HSV-1 (F)): 1.4 µg/mL | IC50 (HSV-1 (F); Table VIII, strain HSV-1 (F)): 1.25 µg/mL

Nc1nc2c(ncn2COCCO)c(=O)[nH]1 [Aciclovir, aciclovir]
IC50 (HSV-1 TK^− B2006; Human alphaherpesvirus 1): > 0.5 µg/mL | Relative resistance (RR) (HSV-1 TK^− B2006): 10.0 | IC50 (1C3-syn-14-1; Human alphaherpesvirus 1, Table VIII, strain 1C3 syn 14-1, read-out: IC50): 0.1 µg/mL (≈ 0.444 µM) | Relative resistance (RR) (1C3-syn-14-1; Table VIII): 2.0 | susceptibility of variant to drug (in words) (1C3-syn-14-1): rare resistance | IC50 (1C3 syn 20-2; Human alphaherpesvirus 1): 0.2 µg/mL (≈ 0.888 µM) | Relative resistance (RR) (1C3 syn 20-2): 4.0 | IC50 (1C3 syn 21-2; [1]): 0.4 µg/mL (≈ 1.78 µM) | Relative resistance (RR) (1C3 syn 21-2): 8.0 | IC50 (1C3 syn 17-1; [1]): 0.28 µg/mL (≈ 1.24 µM) | Relative resistance (RR) (1C3 syn 17-1): 5.6 | IC50 (1C3 syn 21-3; [1]): 0.2 µg/mL (≈ 0.888 µM) | Relative resistance (RR) (1C3 syn 21-3): 4.0 | IC50 (1C3 syn 17-2; [1]): 0.2 µg/mL (≈ 0.888 µM) | Relative resistance (RR) (1C3 syn 17-2): 4.0 | IC50 (1C3 syn 17-3; [1]): 0.2 µg/mL (≈ 0.888 µM) | Relative resistance (RR) (1C3 syn 17-3): 4.0 | IC50 (1C3 syn 20-3; [1]): 0.2 µg/mL (≈ 0.888 µM) | Relative resistance (RR) (1C3 syn 20-3): 4.0 | IC50 (1C3 syn 21-1; [1]): 0.2 µg/mL (≈ 0.888 µM) | Relative resistance (RR) (1C3 syn 21-1): 4.0 | IC50 (1C3 syn 20-1; [1]): 0.4 µg/mL (≈ 1.78 µM) | Relative resistance (RR) (1C3 syn 20-1): 8.0 | IC50 (HSV-1 (F); Human alphaherpesvirus 1, Table VIII, strain HSV-1 (F), read-out: IC50): 0.05 µg/mL (≈ 0.222 µM)
